From ChEMBL document CHEMBL1201862, “PubChem BioAssay data set” (2004)
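96-well plates; 48 h exposure; 5 concentrations. Endpoints by linear interpolation between flanking doses. Not reached: highest tested concentration assigned. At the GI50, growth is halved.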 The source made the active and inactive calls. Rule as the data show it: active = GI50 up to about 1.1 µM and inactive = higher.

Assays:
Experiment in all cases: inhibition of tumour cell growth, NCI panel, 48 h
[1] = test system: LOX IMVI
[2] = test system: U-251
[3] = test system: NCI-H23
[4] = test system: MDA-MB-231
[5] = test system: HL-60
[6] = test system: HCT-116
[7] = test system: NCI-H226
[8] = test system: SN12C
[9] = test system: OVCAR-5
[10] = test system: HCT-15
[11] = test system: A498
[12] = test system: Hs-578T
[13] = test system: SF-268
[14] = test system: Malme-3M
[15] = test system: HCC 2998
[16] = test system: EKVX
[17] = test system: NCI-H522
[18] = test system: MOLT-4
[19] = test system: SF-295
[20] = test system: CAKI-1

SMILES: CSc1ncnc2c1cnn2Cc1cn(COCCO)nn1
- GI50 [1]: 80.7 µM (inactive)
- GI50 [2]: 64.1 µM (inactive)
- GI50 [3]: 49.7 µM (inactive)
- GI50 [4]: > 100 µM (inactive)
- GI50 [5]: 40 µM (inactive)
- GI50 [6]: 45.4 µM (inactive)
- GI50 [7]: > 100 µM (inactive)
- GI50 [8]: 64.6 µM (inactive)
- GI50 [9]: 88.5 µM (inactive)
- GI50 [10]: > 100 µM
- GI50 [11]: > 100 µM (inactive)
- GI50 [12]: > 100 µM (inactive)
- GI50 [13]: > 100 µM (inactive)
- GI50 [14]: > 100 µM (inactive)
- GI50 [15]: 32.2 µM (inactive)

SMILES: Nc1ncnc2c1ncn2[C@@H]1C[C@H](NO)[C@@H](O)[C@H]1O
- GI50 [1]: 13.1 µM (inactive)
- GI50 [2]: > 100 µM (inactive)
- GI50 [16]: > 100 µM (inactive)
- GI50 [3]: > 100 µM (inactive)
- GI50 [4]: > 100 µM (inactive)
- GI50 [17]: > 100 µM (inactive)
- GI50 [6]: 4.88 µM (inactive)
- GI50 [7]: > 100 µM (inactive)
- GI50 [8]: > 100 µM (inactive)
- GI50 [9]: > 100 µM (inactive)
- GI50 [10]: 16.4 µM
- GI50 [11]: > 100 µM (inactive)
- GI50 [12]: > 100 µM (inactive)
- GI50 [18]: 83.4 µM (inactive)
- GI50 [13]: > 100 µM (inactive)
- GI50 [19]: > 100 µM (inactive)
- GI50 [14]: > 100 µM (inactive)
- GI50 [15]: > 100 µM (inactive)

SMILES: COC(=O)CCC1=NCC(C)(C)O1
- GI50 [1]: > 10 µM (inactive)
- GI50 [2]: > 10 µM (inactive)
- GI50 [16]: > 10 µM (inactive)
- GI50 [3]: > 10 µM (inactive)
- GI50 [4]: > 10 µM (inactive)
- GI50 [17]: > 10 µM (inactive)
- GI50 [6]: > 10 µM (inactive)
- GI50 [7]: > 10 µM (inactive)
- GI50 [8]: > 10 µM (inactive)
- GI50 [9]: > 10 µM (inactive)
- GI50 [10]: > 10 µM
- GI50 [11]: > 10 µM (inactive)
- GI50 [12]: > 10 µM (inactive)
- GI50 [18]: > 10 µM (inactive)
- GI50 [13]: > 10 µM (inactive)
- GI50 [19]: > 10 µM (inactive)
- GI50 [14]: > 10 µM (inactive)
- GI50 [20]: > 10 µM (inactive)
- GI50 [15]: > 10 µM (inactive)

SMILES: CCn1c(=O)c2c3ccc(O)cc3oc2c2ccc(O)cc21
- GI50 [2]: 32.2 µM (inactive)
- GI50 [16]: 3.55 µM (inactive)
- GI50 [3]: 37.4 µM (inactive)
- GI50 [4]: 30.2 µM (inactive)
- GI50 [17]: 40.1 µM (inactive)
- GI50 [6]: 27.2 µM (inactive)
- GI50 [7]: 42.7 µM (inactive)
- GI50 [8]: 41.5 µM (inactive)
- GI50 [10]: 39.4 µM
- GI50 [11]: 25.4 µM (inactive)
- GI50 [12]: 14.6 µM (inactive)
- GI50 [18]: 25.5 µM (inactive)
- GI50 [13]: 36.9 µM (inactive)
- GI50 [19]: 52.4 µM (inactive)
- GI50 [14]: 41.7 µM (inactive)
- GI50 [20]: 39.4 µM (inactive)
- GI50 [15]: 47 µM (inactive)

SMILES: CC(NC(=N)N)C(=O)O (configuration not stated)
- GI50 [1]: > 100 µM (inactive)
- GI50 [2]: > 100 µM (inactive)
- GI50 [16]: > 100 µM (inactive)
- GI50 [3]: > 100 µM (inactive)
- GI50 [4]: > 100 µM (inactive)
- GI50 [17]: > 100 µM (inactive)
- GI50 [6]: > 100 µM (inactive)
- GI50 [7]: > 100 µM (inactive)
- GI50 [8]: > 100 µM (inactive)
- GI50 [9]: > 100 µM (inactive)
- GI50 [10]: > 100 µM
- GI50 [11]: > 100 µM (inactive)
- GI50 [12]: > 100 µM (inactive)
- GI50 [18]: > 100 µM (inactive)
- GI50 [13]: > 100 µM (inactive)
- GI50 [19]: > 100 µM (inactive)
- GI50 [14]: > 100 µM (inactive)
- GI50 [20]: > 100 µM (inactive)
- GI50 [15]: > 100 µM (inactive)

SMILES: COC(=O)CCC(=O)c1ccc2c(c1)CC1(Cc3ccccc3C1)C2
- GI50 [1]: 36.2 µM (inactive)
- GI50 [2]: 58.7 µM (inactive)
- GI50 [16]: > 100 µM (inactive)
- GI50 [3]: 40.1 µM (inactive)
- GI50 [4]: > 100 µM (inactive)
- GI50 [17]: 33.4 µM (inactive)
- GI50 [6]: 28.3 µM (inactive)
- GI50 [7]: 24.7 µM (inactive)
- GI50 [8]: 82.6 µM (inactive)
- GI50 [9]: 53.5 µM (inactive)
- GI50 [11]: 48.6 µM (inactive)
- GI50 [12]: > 100 µM (inactive)
- GI50 [18]: 17.7 µM (inactive)
- GI50 [19]: 38 µM (inactive)
- GI50 [14]: 80.5 µM (inactive)
- GI50 [15]: 55.8 µM (inactive)

SMILES: O=C(/C=C/c1ccc(O)c(O)c1)NC(COC(=O)/C=C/c1ccc(O)c(O)c1)C(=O)O (configuration not stated)
- GI50 [1]: > 100 µM (inactive)
- GI50 [2]: > 100 µM (inactive)
- GI50 [16]: > 100 µM (inactive)
- GI50 [3]: > 100 µM (inactive)
- GI50 [4]: > 100 µM (inactive)
- GI50 [17]: > 100 µM (inactive)
- GI50 [6]: > 100 µM (inactive)
- GI50 [7]: > 100 µM (inactive)
- GI50 [8]: > 100 µM (inactive)
- GI50 [9]: > 100 µM (inactive)
- GI50 [10]: > 100 µM
- GI50 [11]: > 100 µM (inactive)
- GI50 [12]: > 100 µM (inactive)
- GI50 [18]: > 100 µM (inactive)
- GI50 [13]: > 100 µM (inactive)
- GI50 [19]: > 100 µM (inactive)
- GI50 [14]: > 100 µM (inactive)
- GI50 [20]: > 100 µM (inactive)
- GI50 [15]: > 100 µM (inactive)

SMILES: C/C(=C\COc1ccc2ccc(=O)oc2c1)C1=CC(=O)C(C)(C)O1 [GEIPARVARIN]
- GI50 [1]: 1.89 µM (inactive)
- GI50 [2]: 4.3 µM (inactive)
- GI50 [16]: 5.64 µM (inactive)
- GI50 [3]: 3.29 µM (inactive)
- GI50 [4]: 5.18 µM (inactive)
- GI50 [5]: 2.29 µM (inactive)
- GI50 [6]: 2.22 µM (inactive)
- GI50 [7]: 3.32 µM (inactive)
- GI50 [8]: 3.94 µM (inactive)
- GI50 [9]: 10.2 µM (inactive)
- GI50 [10]: 3.04 µM
- GI50 [11]: 4.6 µM (inactive)
- GI50 [12]: 2.51 µM (inactive)
- GI50 [18]: 4.14 µM (inactive)
- GI50 [13]: 3.93 µM (inactive)
- GI50 [19]: 2.43 µM (inactive)
- GI50 [14]: 5.58 µM (inactive)
- GI50 [20]: 4.83 µM (inactive)
- GI50 [15]: 3.94 µM (inactive)
